Like-named read-outs stand apart in the source and are kept apart here.

One data set deals with activated PSCs. In words: Apoptosis markers in activated PSCs, TRAILPEG versus conventional toxic agents. The class given is cell-based, human. As to conditions: 48 hr, DOX 100 nM, CIS 10 μM, H2O2 10 μM.
Another data set relates to EtOH-activated PSCs. In words: Caspase 3/7 assay in EtOH-activated PSCs. The class given is cell-based, human. The settings on record: alcohol-activated PSCs; different concentrations (0-10^3 ng/mL), alcohol still present in culture.
The conditions of data set [1]: rodents; cited from earlier work.
The conditions of data set [2]: humans; cited from earlier work.

Procedure for EtOH-activated PSCs: Caspase 3/7 activities were measured by caspase3/7 assay kit (Promega) according to the manufacturer's protocol. The luminescence of each sample was measured on a plate reader (Bio-Tek Instruments Inc) with parameters of 1 min lag time and 0.5 sec/well read time (n=4).
To investigate TRAIL-induced apoptosis in alcohol-activated PSCs, 2×10^4 cells were cultured for overnight in a 96-well plate and then activated with 50 mM EtOH for 48 h. […] Apoptosis was measured by MTT cell death assay and caspase 3/7 assay as described above.

As for `COc1cccc2c1C(=O)c1c(O)c3c(c(O)c1C2=O)C[C@@](O)(C(=O)CO)C[C@@H]3O[C@H]1C[C@H](N)[C@H](O)[C@H](C)O1` [doxorubicin], the “killing of activated PSCs by conventional toxic agents” value (“killing of activated PSCs” for short) with activated PSCs is recorded as “difficult to kill”.

With `OO` [hydrogen peroxide], the “killing of activated PSCs” value in the data set with activated PSCs is “difficult to kill”.

As for “conatumumab: human anti-DR5 agonistic antibody (Creative Biolabs)”, the “apoptosis (caspase 3/7 activity, FIG. 9)” value in the data set on EtOH-activated PSCs is on record as “induced strong apoptosis dose-dependently”.

Consider `N.N.[Cl][Pt][Cl]` [cisplatin], for which the “killing of activated PSCs” value in the data set on activated PSCs is reported as “difficult to kill”.

Consider “TRAIL: TNF (Tumor Necrosis Factor)-related apoptosis-inducing ligand, protein ligand that induces apoptosis”, for which the t1/2 entry is recorded as “less than 5 min” in data set [1] and less than 30 min in data set [2].

(Values after patent US11084879B2, “Compositions and methods for treating pancreatitis and pain with death receptor agonists” (The Johns Hopkins University, priority 2016, dated 2021).)
